Molecules are shown by their SMILES.

The data set can be described thus: gradient 5% acetonitrile 3 min, to 50% in 2 min, to 85% in 15 min, held 3 min, 100 µL/min. To be noted: column: Zorbax Extend-C18 2.1 x 50 mm; eluents: water / acetonitrile, 0.1% formic acid. In a few lines:
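Values are retention times taken from adduct peaks that software picked and an analyst inspected. The pure standards were run as mixtures of ~100 molecules on HPLC linked to a quadrupole time-of-flight mass spectrometer, in positive and negative ionization mode. A Zorbax Extend-C18 column (2.1 × 50 mm, 1.8 μm) was used at 100 μL/min with water and acetonitrile, each including 0.1% formic acid.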
Regarding `CCS(=O)(=O)N1CC(=O)N(c2ccc(Cl)cc2C)C(C)(C(=O)NC2CCCCC2)C1` (stereo not given), the RP-LC retention time is 946 s.
Then `Cc1ccc(NC(=O)Cn2nc(N3CCOCC3)c3ccccc3c2=O)c(Br)c1`, with 884 s; and `O=C(Cn1cc(C(=O)c2ccco2)c2ccccc21)NCc1ccc2c(c1)OCCCO2`, with 858 s; and `Cc1cc(C)c(NC(=O)CSc2nccc(N3CCN(c4cc(C)ccc4C)CC3)n2)c(C)c1`, with 1080 s.
Then `CCOC(=O)C1=C(CN(C)Cc2ccccc2)NC(=O)NC1c1ccc(F)cc1` (stereo not given), with 663 s; and `Cn1c(CNC(=O)c2cccc(N3CCNC(c4ccccc4)C3)n2)nc2ccccc21` (stereo not given), with 573 s; and `CCCCN(CC)c1nc(-c2ccc([N+](=O)[O-])cc2)nc2ccccc12`, with 975 s.
Then `Cc1ccc(-c2ccc(N3CCCC(C(=O)NCCC4=CCCCC4)C3)nn2)cc1` (stereo not given), with 855 s.
Take `CCc1ccc(S(=O)(=O)N2CCCC2c2nc(-c3ccc(Cl)cc3)no2)cc1` (stereo not given): the RP-LC retention time was 1290 s.
Under `CC1CCN(c2cc(-n3cnc(C(=O)NCc4ccc5c(c4)OCO5)c3)ncn2)CC1` stands 964 s; under `CCCC(=O)N1CCc2c([nH]c3ccccc23)C1c1ccc(Cl)cc1` (stereo not given), 578 s.
Then `O=C(NCc1nc(-c2cccs2)no1)c1ccc(Br)cc1`, with 892 s; and `CCCN1CCN(C(=O)Cn2nc(C)c3sc(-c4ccccc4)nc3c2=O)CC1`, with 623 s.
Compound `Cn1cnc(S(=O)(=O)N2CCC(C(=O)NCc3ccccc3Cl)CC2)c1` had an RP-LC retention time of 695 s.
Under `COc1ccc(-c2csc3c(=O)n(CC(=O)NC4CCCC4)cnc23)cc1` stands 832 s; under `O=C(Nc1nc2c(s1)CN(C(=O)Cn1c(=O)oc3ccccc31)CC2)C1CCCO1` (stereo not given), 665 s; under `CCC(=O)Nc1nc(-c2ccc3c(c2)N(CC)C(=O)CO3)cs1`, 752 s.
`O=C(C1CCCCC1)N1CCN(CC(F)(F)F)CC1`: the RP-LC retention time came out at 796 s.
Then `CC1(C(=O)NCc2ccc(F)cc2)CCCN(C(=O)Nc2ccc(Br)cc2F)C1` (stereo not given), with 1030 s.
Under `Nc1ccc2c3c(cccc13)C(=O)NC2=O` stands 657 s; under `CN(CC(=O)NC1CCCC1)S(=O)(=O)c1c[nH]c(C(=O)N2CCCC2)c1`, 686 s; under `Cc1ccc(S(=O)(=O)N2CCN(c3ccc(-c4ccc(F)cc4)nn3)CC2)s1`, 870 s.
`CNC(=O)c1ccccc1C(=O)NCCc1nc(-c2cnccn2)no1` had an RP-LC retention time of 555 s.
Turning to `O=C(C1CCCCC1)N1CCC(c2noc(CO)n2)C1` (stereo not given), the RP-LC retention time was found to be 656 s.
Under `COc1ccc(OC)c(CNC(=O)CCC2CCN(S(=O)(=O)c3ccccc3)CC2)c1` stands 875 s.
Then `COc1ccc(-c2ccc(S(=O)(=O)NCc3ccc(C(=O)O)cc3)cc2)cc1`, with 801 s.
Then `CCCCOc1ccc(CNC(=O)CSc2nccnc2Oc2ccccc2)cc1`, with 1130 s.
The compound `Cc1ccccc1-n1nc2c(c1NC(=O)CSCc1ccccc1)CSC2` came in with an RP-LC retention time of 907 s.
Under `COc1cccc(CNC(=O)c2ccc3ncnc(N4CCCC4)c3c2)c1` stands 621 s; under `CCN(Cc1ccccc1)C(=O)c1ncn2c1C(=O)N(CC)C(C)(C(=O)NCc1ccc(F)cc1)C2` (stereo not given), 762 s; under `CCC(=O)N1CCc2c(C(=O)N3CCN(c4ccccc4Cl)CC3)cccc21`, 960 s.
`CN1c2ccccc2C(=O)NC12CCN(C(=O)NCc1ccc(F)cc1)CC2` had an RP-LC retention time of 724 s.
Then `Cc1ccccc1NS(=O)(=O)c1cc(-c2[nH]ncc2C(=O)N2CCCC2)oc1C`, with 700 s; and `Cn1nc(C(=O)N2CC(n3cc(C(=O)NCC4CC4)nn3)C2)c2ccccc21`, with 734 s; and `CCC(C)NC(=O)CCc1ccc2nc(-c3ccccc3)[nH]c2c1` (stereo not given), with 621 s.
Then `Cc1noc(CNC(=O)C2CCN(S(=O)(=O)c3cccs3)CC2)n1`, with 646 s; and `O=c1c2cc(-c3ccccc3)nn2ccn1CC(O)c1ccccc1` (stereo not given), with 846 s.
Regarding `CCCNC(=O)C1CCCN(c2ccc(SCC(=O)Nc3c(C)cccc3CC)nn2)C1` (stereo not given), the RP-LC retention time turned out to be 650 s.
Then `COc1ccc(NC(=O)Cn2cccc(-c3nc(-c4ccc(OC)c(OC)c4)no3)c2=O)cc1OC`, with 722 s; and `Cc1cc(C)cc(N2CCC(NC(=O)Nc3ccccc3)C2=O)c1` (stereo not given), with 862 s; and `COc1cccc(-c2noc(C3CCCN3C(=O)Nc3ccc(OC)cc3C)n2)c1` (stereo not given), with 900 s.
Under `N#Cc1ccc(C(=O)NC(Cc2ccccc2)c2nnc(N3CCCC3)o2)cc1` (stereo not given) stands 778 s; under `CCOc1ccccc1NC(=O)C1CCN(S(C)(=O)=O)c2cc(Cl)ccc2O1` (stereo not given), 910 s; under `Oc1ccc2c3c1O[C@H]1c4oc5ccccc5c4C[C@@]4(O)C(C2)N(CC2CC2)CCC314` (stereo not given in full), 702 s.
Then `O=C(Nc1cccc(Br)c1)N1C[C@H]2C[C@H](C1)[C@H]1CCCC(=O)N1C2`, with 708 s; and `CCn1cnc(S(=O)(=O)N2CCC(C(=O)Nc3cccc(-c4ccno4)c3)CC2)c1`, with 724 s; and `Cc1ccn2cc(C(=O)NCCC(C)C)nc2c1`, with 640 s.
The compound `O=C(c1cccnc1)N1CCN(c2nnnn2-c2ccccc2)CC1` came in with an RP-LC retention time of 588 s.
Then `Cc1cc(=O)n(CC(=O)Nc2ccccc2)c(-c2ccc(Cl)cc2)n1`, with 1100 s.
Then `CCNS(=O)(=O)c1cccnc1Nc1ccc(Cl)cc1`, with 1030 s; and `Cn1cc(S(=O)(=O)N2CCCC2)cc1C(=O)N1CCN(c2ccccn2)CC1`, with 594 s.
Under `Cc1ccc(Nc2c(-c3ccc(N4CCOCC4)cc3)nc3ccccn23)cc1` stands 682 s.
In turn, `Fc1ccc(C2Cn3nnc(-c4nc(-c5ccc(Cl)cc5)no4)c3CO2)cc1` (stereo not given) came in with an RP-LC retention time of 1230 s.
For the compound `CC(C)C(NC(=O)NCc1ccccc1)C(=O)N1CCc2ccccc21` (stereo not given), the RP-LC retention time came to 896 s.
Under `CCOc1ccccc1NC(=O)N1CCN(CCn2c(C(C)C)nc3cccnc32)CC1` stands 617 s; under `Cc1cc(C)c2c(N3CCSCC3)nc(C(=O)NCC(C)C)nc2n1`, 658 s; under `Cc1ccc(Oc2cccc(C(N)=O)c2)nn1`, 559 s.
Then `Cc1c(Cl)cccc1NC(=O)N1CCN(CCn2c(C(F)(F)F)nc3cccnc32)CC1`, with 666 s; and `O=C(NCc1cccc(Br)c1)C1CCN(C(=O)C2Sc3ccccc3NC2=O)CC1` (stereo not given), with 800 s; and `c1ccc(Cn2cnnc2C2CCCN(Cc3cccs3)C2)cc1` (stereo not given), with 592 s.
Then `COC(=O)c1ccc(C(=O)OC)c(NC(=O)N2CCC(CN3CCCCCC3)CC2)c1`, with 678 s; and `Cc1nc(-c2noc(-c3ccccc3)n2)cn1CC(=O)N1CCc2ccccc21`, with 860 s; and `Cc1ccn2cc(-c3ccc(NS(=O)(=O)c4ccc(Br)cc4)cc3)nc2n1`, with 689 s.
As to `Cc1ccc(-c2nnc(-c3nn(C)c4c3CN(S(=O)(=O)c3ccc(F)c(Cl)c3)CC4)o2)cc1`, the RP-LC retention time amounted to 970 s.
Take `COc1ccc(NC(=O)Cn2nc3nc(N4CCOCC4)ccn3c2=O)cc1F`: the RP-LC retention time was determined as 602 s.
`CC1CCCC(C)N1CCCNC(=O)c1cc2sccc2n1Cc1ccc(Cl)cc1` (stereo not given) gave an RP-LC retention time of 783 s.
Under `NS(=O)(=O)c1ccc(CCNC(=O)c2cccc(-n3cnnn3)c2)cc1` stands 617 s; under `COc1ccccc1CC(=O)Nc1cccn2c(C3CCC3)nnc12`, 782 s.
Then `Cc1cc(=O)n(CC(=O)NC2CCCC2)c(N2CCOCC2)n1`, with 599 s; and `Cc1ccccc1-c1nc2cnccn2c1NCCC(=O)NCc1ccco1`, with 624 s.
Then `Cc1ccsc1C(=O)N1C[C@@H](F)C[C@H]1C(=O)N1CCCCC1`, with 695 s.
With `CC(=O)N1CCc2cc(N3CC(C(=O)NCc4cccc(F)c4)CC3=O)ccc21` (stereo not given), the RP-LC retention time is 741 s.
Then `CN1C(=O)c2cccnc2Sc2cc(NC(=O)c3cccc(F)c3)ccc21`, with 790 s; and `Fc1ccc(OCc2cn(C3CN(Cc4cccc(F)c4)C3)nn2)cc1`, with 688 s; and `COc1ccc(CNC(=O)C2CCCN(c3cc(=O)n(C)c(=O)n3C)C2)cc1` (stereo not given), with 663 s.
Then `CC(C)CN1C(=O)c2cccn2CC1C(=O)NCCCN1CCOCC1` (stereo not given), with 577 s; and `COCCC(=O)N1CCN(c2ncccc2-c2nnc(C(C)C)o2)CC1`, with 666 s; and `COc1ccc(-c2cn3c(CC(=O)Nc4ccccc4)csc3n2)cc1OC`, with 702 s.
Under `Cc1ccc(NS(=O)(=O)c2ccc3c(c2)C(=O)N(C)c2ncccc2O3)cc1F` stands 957 s; under `COc1cccc(N2CC(NC(=O)c3ccccc3C(F)(F)F)CC2=O)c1` (stereo not given), 709 s.

(Values after the METLIN SMRT retention time set (Domingo-Almenara et al. 2019).)
